One data set deals with FGFR1 (h) (Homo sapiens, UniProt P11362). Kind of data set: FGFR1 (enzymatic assay), TR-FRET. It counts as biochemical. Conditions: FGFR 1 pIC50, 5 μM ATP, 60 min; pIC50 = -log IC50 (M); average if tested multiple times.
The target in data set [1] is T1, Ba/F3-Flt3-transfected cells (Homo sapiens, UniProt P36888, cells depend on it, form not given).
T1 construct: BAF3-FLT3 (MIN IL3 Alamar Blue pIC50); other: minus IL3; 24 hours, Alamar Blue
T1 sequence (P36888 1-993): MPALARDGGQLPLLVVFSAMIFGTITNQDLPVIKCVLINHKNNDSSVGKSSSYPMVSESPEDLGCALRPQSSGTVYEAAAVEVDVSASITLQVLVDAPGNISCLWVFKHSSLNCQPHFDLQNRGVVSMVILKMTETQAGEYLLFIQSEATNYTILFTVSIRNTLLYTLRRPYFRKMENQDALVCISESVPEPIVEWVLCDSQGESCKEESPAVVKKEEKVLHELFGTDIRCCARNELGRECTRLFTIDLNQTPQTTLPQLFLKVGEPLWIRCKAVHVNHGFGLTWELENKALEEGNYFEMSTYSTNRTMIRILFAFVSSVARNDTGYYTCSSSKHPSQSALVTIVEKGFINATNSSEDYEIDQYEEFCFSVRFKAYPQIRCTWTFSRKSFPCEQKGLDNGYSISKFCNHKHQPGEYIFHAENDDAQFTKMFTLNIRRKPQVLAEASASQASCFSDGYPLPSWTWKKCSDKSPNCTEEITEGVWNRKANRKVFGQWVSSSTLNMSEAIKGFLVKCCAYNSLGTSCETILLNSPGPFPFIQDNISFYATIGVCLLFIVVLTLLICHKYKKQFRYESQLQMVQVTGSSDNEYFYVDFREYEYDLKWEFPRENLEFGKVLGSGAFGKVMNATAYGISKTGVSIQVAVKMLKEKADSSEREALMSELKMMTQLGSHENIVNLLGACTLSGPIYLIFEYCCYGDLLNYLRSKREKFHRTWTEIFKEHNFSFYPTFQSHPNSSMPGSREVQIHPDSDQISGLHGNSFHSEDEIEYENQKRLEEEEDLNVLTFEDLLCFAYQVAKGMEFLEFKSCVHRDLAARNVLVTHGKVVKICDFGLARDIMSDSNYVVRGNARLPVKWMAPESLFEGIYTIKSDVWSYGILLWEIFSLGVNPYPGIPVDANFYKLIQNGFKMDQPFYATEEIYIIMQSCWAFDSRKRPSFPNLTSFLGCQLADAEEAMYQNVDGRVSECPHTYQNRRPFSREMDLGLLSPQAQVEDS
Kind of data set: Ba/F3-Flt3 (minus IL3 or plus IL3) cellular proliferation assay, Alamar Blue. It counts as cell-based. As to conditions: minus IL3, 24 hours. On the procedure:
Ba/F3-Flt3 (Minus IL3 or Plus IL3) (Cellular Proliferation Assay)
In a 384 well plate, 100 nl of compound dilution in DMSO was sprayed before adding 50 μl cell culture medium (phenol red free RPMI-1640, 10% FBS, 2 mM L-Glutamine and 50 μg/ml Gentamycin) containing 20000 cells per well of Ba/F3-Flt3-transfected cells. Cells were put in an incubator at 37° C. and 5% CO2. After 24 hours, 10 μl of Alamar Blue solution (0.5 mM K3Fe(CN)6, 0.5 mM K4Fe(CN)6, 0.15 mM Resazurin and 100 mM Phosphate Buffer) was added to the wells, incubated for 4 hours at 37° C. and 5% CO2 before RFU's (Relative Fluorescence Units) (ex. 540 nm., em. 590 nm.) were measured in a fluorescence plate reader.
In this assay, the inhibitory effect of different compound concentrations (range 10 μM to 0.1 nM) was determined and used to calculate an IC50 (M) and pIC50 (−log IC50) value. As a counterscreen the same experiment was performed in the presence of 10 ng/ml murine IL3.
(Alamar Blue is a resazurin reagent that responds to reducing activity.)

For data set [2], the system named is Ba/F3-FGFR3-transfected cells. Kind of data set: Ba/F3-FGFR3 (minus IL3 or plus IL3) cellular proliferation assay, Alamar Blue. Conditions: read-out: BAF3-FGFR3 (PLUS IL3 Alamar Blue pIC50) (converted). In kind it is cell-based. Summed up:
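Ba/F3-FGFR3 cells (20000 per well) in phenol red-free RPMI-1640 with 10% FBS were exposed to compound (10 μM to 0.1 nM) for 24 h at 37° C. Alamar Blue was then added for 4 h and fluorescence read (ex 540, em 590 nm) to give IC50/pIC50; the counterscreen was run with 10 ng/ml murine IL3.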

In data set [3] the test system is Ba/F3-KDR-transfected cells. Briefly: Ba/F3-KDR (minus IL3 or plus IL3) cellular proliferation assay, Alamar Blue. It counts as cell-based. Conditions: read-out: BAF3-KDR (PLUS IL3 Alamar Blue pIC50) (converted). Summed up: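 Ba/F3-KDR cells, 20000 per well, exposed to compounds (10 μM to 0.1 nM) for 24 h at 37°C in RPMI/10% FBS, then Alamar Blue for 4 h; fluorescence ex 540/em 590 nm gives IC50 and pIC50. Counterscreen run with 10 ng/ml murine IL3.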

[4] abbreviates: plus IL3 (10 ng/ml murine IL3, counterscreen), 24 hours, Alamar Blue.

Each structure is given as a SMILES string. Like-named read-outs stand apart in the source and are kept apart here.

FGFR1 (h), sequence (P11362 22-822): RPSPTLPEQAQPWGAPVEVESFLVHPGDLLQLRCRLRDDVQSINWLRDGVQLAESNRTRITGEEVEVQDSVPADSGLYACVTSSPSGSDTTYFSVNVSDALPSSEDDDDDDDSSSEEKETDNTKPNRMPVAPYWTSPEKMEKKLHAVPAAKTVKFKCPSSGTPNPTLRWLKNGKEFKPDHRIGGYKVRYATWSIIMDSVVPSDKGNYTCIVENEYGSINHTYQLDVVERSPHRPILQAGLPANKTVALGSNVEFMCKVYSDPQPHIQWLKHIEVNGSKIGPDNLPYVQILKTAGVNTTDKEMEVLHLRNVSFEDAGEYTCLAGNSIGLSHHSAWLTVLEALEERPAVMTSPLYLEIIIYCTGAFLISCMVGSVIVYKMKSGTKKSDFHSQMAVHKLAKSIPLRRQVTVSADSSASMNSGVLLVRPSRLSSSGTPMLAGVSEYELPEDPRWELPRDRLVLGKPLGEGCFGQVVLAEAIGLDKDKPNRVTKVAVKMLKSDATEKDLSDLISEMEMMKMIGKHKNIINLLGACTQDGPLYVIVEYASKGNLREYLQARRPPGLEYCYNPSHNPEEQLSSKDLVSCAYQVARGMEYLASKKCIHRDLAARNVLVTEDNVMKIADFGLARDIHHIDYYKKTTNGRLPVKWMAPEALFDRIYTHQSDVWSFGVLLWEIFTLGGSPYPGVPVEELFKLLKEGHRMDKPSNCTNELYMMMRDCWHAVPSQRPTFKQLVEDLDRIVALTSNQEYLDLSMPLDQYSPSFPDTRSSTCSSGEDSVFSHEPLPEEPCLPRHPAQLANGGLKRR

Broadly, the melting point is the temperature of the solid-liquid transition. Take `COc1cc(OC)cc(N(CCO)c2ccc3ncc(-c4cnn(C)c4)cc3c2)c1` [Compound 3]: the melting point lay in the range of 195 to 196 °C. The IC50 on FGFR1 (h) was 1.38e-08 M. Besides, the “BAF3-FLT3 (MIN IL3 Alamar Blue pIC50)” value in data set [1] is 5.52. Also, in data set [2] (setting [4]), the IC50 is more than 10 µM. Moreover, the IC50 in data set [3] (setting [4]) is more than 10 µM.
On to `COc1cc(OC)cc(C(O)c2ccc3ncc(-c4cnn(C)c4)cc3c2)c1` (stereo not drawn) [Compound 12], for which the melting point was in the range of 184 to 193 °C. Further, the IC50 at FGFR1 (h) is 2.95e-07 M. In addition, the “BAF3-FLT3 (MIN IL3 Alamar Blue pIC50)” value in data set [1] was less than 5.47. Besides, the IC50 in data set [2] (24 h) is more than 10 µM. In data set [3] (24 h), the IC50 was more than 10 µM.
Molecule `COc1cc(OC)cc(N(Cc2ncc[nH]2)c2ccc3ncc(-c4cnn(C)c4)cc3c2)c1` [Compound 18] had a melting point of 196 °C. At FGFR1 (h), this molecule gave an IC50 of 2.75e-09 M. Moreover, the “BAF3-FLT3 (MIN IL3 Alamar Blue pIC50)” value in data set [1] is recorded as less than 5. Moreover, the IC50 in data set [2] (setting [4]) was more than 10 µM. Also, the IC50 in data set [3] (setting [4]) is more than 10 µM.

For the origin of these results see patent publication US10039759B2, “Quinolines as FGFR kinase modulators” (priority 2011, dated 2018).
